Reference: patent publication US20220265635A1, “TREATMENT OF NEUROLOGICAL DISEASE” (Aclipse One Inc., priority 2018, published 2022)
Marks after values point to notes of the source that are not given here.

What was measured:
[1] = tested on: heat shock protein Hspa8 and Hspa1a; assay: Example 3 in vivo pharmacodynamic study via oral dosing: RT-qPCR of brain; conditions: mouse brain, 25 mg/kg oral once daily 4 days; for Relative expression of Hspa1a normalized with Group 1 / Relative expression of Hspa8 normalized with Group 1: normalized to Actb
Method: Wildtype mice were dosed orally at 25 mg/kg (6aS)-6-methyl-5,6,6a,7-tetrahydro-4H-dibenzo[de,g]quinoline-10,11-diol for 4 days once daily.
A total of 36 mice were randomly divided into twelve groups. Each group had 3 mice. After oral administration of (6aS)-6-methyl-5,6,6a,7-tetrahydro-4H-dibenzo[de,g]quinoline-10,11-diol once a day for 4 consecutive days, brains of mice in each group were sampled individually at the time point of 0, 5, 15, 30 min, 1, 2, 3, 4, 8, 12, 24 and 48 hour post the last oral dose. A quarter of whole brain from each mouse in every time group underwent a real-time quantitative polymerase chain reaction (RT-qPCR) analysis. Before RNA extraction, brain tissues were frozen immediately in liquid nitrogen, and were transferred to −80° C. until further use.
Total RNA from 36 frozen brain samples were extracted using Trizol reagent (Invitrogen, Carlsbad, Calif., USA, 15596018) according to the manufacturer's instructions. After extraction, the integrity of total RNA was be checked by 1% agarose gel staining with ethidium bromide as well as by nanodrop (Thermo Fisher, USA). Then, 2 μg of total RNA was used for reverse transcription by M-MLV Reverse Transcriptase (Invitrogen, 28025-013) with gDNA removal (NEB, M0303S). qRT-PCR analysis was performed using LightCycler® 480 Probe Master (4887301001, Roche, Basel, Switzerland) and the Roche LightCycler480 (Roche). The data from triplicate experiments were subjected to statistical analysis and the target genes were normalized against the levels of actin beta (Actb) mRNA. The primers are listed as follows: […]

[2] = tested on: TDP-43^Q331K mouse model; assay: Example 4 electrophysiology: repetitive stimulation; type: in vivo; conditions: TDP-43^Q331K mice
Method: Following genotyping, transgenic females were block randomized into three different dosing groups: vehicle once daily, 2.5 mg/kg (6aS)-6-methyl-5,6,6a,7-tetrahydro-4H-dibenzo[de,g]quinoline-10,11-diol twice daily and 5 mg/kg (6aS)-6-methyl-5,6,6a,7-tetrahydro-4H-dibenzo[de,g]quinoline-10,11-diol once daily. The doses were selected based on results of previous internal studies. Animals were weighed daily before dosing and dosed subcutaneously at 10 ml/kg with a solution of 0.5 mg/ml (6aS)-6-methyl-5,6,6a,7-tetrahydro-4H-dibenzo[de,g]quinoline-10,11-diol for the 5 mg/kg dose and 0.25 mg/ml for the 2.5 mg/kg dose. Where animals were dosed twice a day, the doses were at least 6 hours apart and the dosing solution was freshly made for the second dose of the day.
The study was designed with two main cohorts of mice. One cohort was dosed from 25 days of age until 6 months of age and mice had behavioral testing throughout the study and consisted of 14 mice per group. The other satellite cohort was dosed from 25 days of age until 3 months of age, with no behavioral testing and consisted of 6 mice per group for target engagement and histological assessment. Behavioral tests that were carried out during the experiment were: accelerated rotarod test, gait analysis, and electrophysiology.
Electrophysiological assessment of compound action muscle potential (CMAP) and repetitive stimulation was carried out at 6 weeks, 3 months and 6 months of age.
Mice were anesthetized using gaseous isoflurane and then maintained under gaseous anesthesia using a nose cone for the duration of the experiment. Body temperature was maintained with a heat pad. The fur from the lower left limb was removed using an electric razor followed by hair removal cream in order to allow skin contact of the ring electrodes. Ring electrodes were covered in electrical paste and were placed around the ankle and thigh area of the shaved limb. […]
Repetitive stimulation was carried out after the CMAP was calculated. […]

[3] = Group 3 (15 min) post last dose
[4] = Group 4 (30 min) post last dose
[5] = Group 10 (12 Hr) post last dose
[6] = Group 11 (24 Hr) post last dose
[7] = Group 12 (48 Hr) post last dose

CN1CCc2cccc3c2[C@@H]1Cc1ccc(O)c(O)c1-3 [(6aS)-6-methyl-5,6,6a,7-tetrahydro-4H-dibenzo[de,g]quinoline-10,11-diol]
Relative expression of Hspa1a normalized with Group 1 ([1]; Group 1 (0 min) post last dose): 1.00 | Relative expression of Hspa8 normalized with Group 1 ([1]; Group 1 (0 min) post last dose): 1.00 | Relative expression of Hspa1a normalized with Group 1 ([1]; Group 2 (5 min) post last dose): 0.96 | Relative expression of Hspa8 normalized with Group 1 ([1]; Group 2 (5 min) post last dose): 0.85 | Relative expression of Hspa1a normalized with Group 1 [1, 3]: 1.05 | Relative expression of Hspa8 normalized with Group 1 [1, 3]: 0.89 | Relative expression of Hspa1a normalized with Group 1 [1, 4]: 1.06 | Relative expression of Hspa8 normalized with Group 1 [1, 4]: 0.91 | Relative expression of Hspa1a normalized with Group 1 ([1]; Group 5 (1 Hr) post last dose): 0.90 | Relative expression of Hspa8 normalized with Group 1 ([1]; Group 5 (1 Hr) post last dose): 0.92 | Relative expression of Hspa1a normalized with Group 1 ([1]; Group 6 (2 Hr) post last dose): 1.02 | Relative expression of Hspa8 normalized with Group 1 ([1]; Group 6 (2 Hr) post last dose): 0.96 | Relative expression of Hspa1a normalized with Group 1 ([1]; Group 7 (3 Hr) post last dose): 1.10 | Relative expression of Hspa8 normalized with Group 1 ([1]; Group 7 (3 Hr) post last dose): 0.96 | Relative expression of Hspa1a normalized with Group 1 ([1]; Group 8 (4 Hr) post last dose): 1.09 | Relative expression of Hspa8 normalized with Group 1 ([1]; Group 8 (4 Hr) post last dose): 1.01 | Relative expression of Hspa1a normalized with Group 1 ([1]; Group 9 (8 Hr) post last dose): 2.25* | Relative expression of Hspa8 normalized with Group 1 ([1]; Group 9 (8 Hr) post last dose): 1.11 | Relative expression of Hspa1a normalized with Group 1 [1, 5]: 1.33* | Relative expression of Hspa8 normalized with Group 1 [1, 5]: 1.17** | Relative expression of Hspa1a normalized with Group 1 [1, 6]: 1.04 | Relative expression of Hspa8 normalized with Group 1 [1, 6]: 1.14** | Relative expression of Hspa1a normalized with Group 1 [1, 7]: 1.04 | Relative expression of Hspa8 normalized with Group 1 [1, 7]: 0.99 | Hspa1a mRNA level compared with group 1 (in words) ([1]; group 9 and 10 (8 Hr, 12 Hr)): significant increase | mRNA expression levels of Hspa8 compared with group 1 (in words) ([1]; group 10 and 11 (12 Hr, 24 Hr)): slight increase | group in which Hspa1a mRNA level reached a peak ([1]; group 9 = 8 Hr post last dose): group 9 | repetitive stimulation, between the dose groups ([2]; 3 months): no significant difference | repetitive stimulation response compared to the vehicle dosing group ([2]; 6 months of age, 2.5 mg/kg dose group, stimulation numbers 5 and 7): significant increase | repetitive stimulation response (percentage of the first stimulation) compared to vehicle ([2]; 6 weeks of age, 2.5 mg/kg twice daily, final stimulation, significant difference): larger decrease in response
